In the supplement of paper PMC10949913:

Legend:
CU-ACC1 = test: area under concentration-response curve (viability) (AUC (a.u.)); higher = less active; details: 48 h
In short: (§1)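 Luminescence from CellTiter-Glo, read after 48 h, measured three adrenocortical carcinoma cell lines treated in 1,536-well plates with library compounds at 11 concentrations. Values were normalised per plate to vehicle and empty-well controls. The AC50 and area under the curve come from fitted concentration-response curves in inhibitory or non-responding classes only.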

CU-ACC2 = test: as above; details: 48 h
In short: as §1

SMILES | area under concentration-response curve (CU-ACC1) | area under concentration-response curve (CU-ACC2)
CCCCCCCCCCCCCCCCOCCCO[P](O)(=O)COC(CO)CN1/C=C\C(=N/C1=O)N (stereo not drawn) | 551 | 609
CCCCCCCCCCCC/1=C(O)/C(=O)/C=C(O)\C1=O | 534 | 593
CCOC(=N)c1nc2ccc3ncnc(Nc4cc(F)c(F)cc4Cl)c3c2s1 | 424 | 653
COc1ccc2c(c1)c(CC(=O)O)c(C)n2C(=O)c1ccc(Cl)cc1 | 495 | 566
COc1ccccc1C(=O)Nc1cc2c(cc1N1CCCC1)n(C)c(=O)n2C | 537 | 602
C[C@]12CC[C@@H]3c4ccc(O)cc4CC[C@H]3[C@@H]1C[C@@H](O)[C@@H]2O | 388 | 398
COc1cc(/C=C(\C#N)C(=O)Nc2nnc(C(F)(F)F)s2)ccc1OCc1ccc(C(F)(F)F)cc1C(F)(F)F | 450 | 488
CSC[C@H]1CN(Cc2c[nH]c3c(N)ncnc23)C[C@@H]1O | 364 | 417
Cc1[nH]c(=O)c(C#N)cc1-c1ccc2nccn2c1.Cl | 587 | 624
CC(=O)OCC(=O)[C@@]1(O)CC[C@H]2[C@@H]3CCC/4=C/C(=O)CC[C@]4(C)[C@H]3C(=O)C[C@]12C | 531 | 617
c1ccc(-c2nn3c(c2-c2ccnc4cc(OCCN5CCOCC5)ccc24)CCC3)nc1 | 479 | 496
CCC[S+]([O-])c1ccc2[nH]c(NC(=O)OC)nc2c1 (stereo not drawn) | 502 | 595
CN1CCC(=C2c3ccccc3CC(=O)c3sccc32)CC1 | 557 | 537
CN1C(=O)[C@@H](NC(=O)c2cc(Cc3ccccc3)on2)COc2ccccc21 | 361 | 325
O=P(O)(O)C(O)(Cn1ccnc1)P(=O)(O)O | 628 | 679
CC(C)(c1ccc(OCC(O)CO)cc1)c1ccc(OCC(O)CCl)cc1 (stereo not drawn) | 384 | 301
CNNCc1ccc(C(=O)NC(C)C)cc1 | 517 | 526
CCc1ccc(N(CC(C)C)[S+](=O)([O-])c2ccc(OCC3CCOCC3)c(CO)c2)cc1 | 466 | 586
Nc1nc(-c2nn(Cc3ccccc3F)c3ncccc23)nc(N)c1N1CCOCC1 | 605 | 599
C[N]1C=C(C2=CC=CC=C12)\C3=C(\C(=O)NC3=O)C4=C[N](C5CCN(CC5)CC6=NC=CC=C6)C7=C4C=CC=C7 | 494 | 500
O=C(Nc1ccc(OC(F)(F)F)cc1)c1sccc1NCc1ccnc2ccccc12 | 525 | 639
COc1c(C)cc(NC(=O)c2nn(Cc3ccc(F)cc3)c3c2CN(C(=O)c2ccc[nH]2)C[C@]3(C)C(N)=O)cc1C | 567 | 646
CO[C@@H]1COCC[C@@H]1N[C@@H]1CC[C@@](C(=O)N2CCc3ncc(C(F)(F)F)cc3C2)(C(C)C)C1 | 591 | 640
COc1ccc2[n-]c([S+]([O-])Cc3ncc(C)c(OC)c3C)nc2c1 (stereo not drawn) | 387 | 398
CN1C(=N)N[C@](C)(c2cc(NC(=O)c3ccc(F)cn3)ccc2F)C[S+]1(=O)[O-] | 563 | 611
O=C(NCCO[N+](=O)[O-])c1cccnc1 | 566 | 605
Cl.NC(CO)C(=O)NNCc1ccc(O)c(O)c1O (stereo not drawn) | 562 | 627
C[C@H]1CN(C[C@@H](C)O1)CC(=O)NC2=CC=C3SC4=C(CC3=C2)C=CC=C4\C5=C\C(=O)\C=C(/O5)N6CCOCC6 | 439 | 428
CCc1cc(/C(C)=N/OCc2ccc(C3CCCCC3)c(C(F)(F)F)c2)ccc1CN1CC(C(=O)O)C1 | 462 | 526
